Results published in PubChem BioAssay (NCI).
Several values for one entry are separate records, joined by “and”; a condition that tells them apart may be missing. Identical values can stand only once.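 Exposure lasted 48 hours, with cells grown in 96-well plates and compounds tested at five concentrations. Here, GI50 denotes the concentration required for 50% inhibition of growth. TGI marks complete inhibition of growth.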

Key:
Assay in all cases: DTP human tumour cell line panel, 48 h
MDA-MB-435 = test system: MDA-MB-435
T-47D breast = test system: T-47D breast
OVCAR-5 ovarian = test system: OVCAR-5 ovarian
786-0 renal = test system: 786-0 renal
HCT-116 colon = test system: HCT-116 colon
HL-60(TB) leukemia = test system: HL-60(TB) leukemia
DU-145 prostate = test system: DU-145 prostate
ACHN renal = test system: ACHN renal
SF-295 CNS = test system: SF-295 CNS
K-562 leukemia = test system: K-562 leukemia

| SMILES | GI50 (MDA-MB-435) | TGI (MDA-MB-435) | GI50 (T-47D breast) | TGI (T-47D breast) | GI50 (OVCAR-5 ovarian) | TGI (OVCAR-5 ovarian) | GI50 (786-0 renal) | TGI (786-0 renal) | GI50 (HCT-116 colon) | TGI (HCT-116 colon) | GI50 (HL-60(TB) leukemia) | TGI (HL-60(TB) leukemia) | GI50 (DU-145 prostate) | TGI (DU-145 prostate) | GI50 (ACHN renal) | TGI (ACHN renal) | GI50 (SF-295 CNS) | TGI (SF-295 CNS) | GI50 (K-562 leukemia) [µM] | TGI (K-562 leukemia) [µM] |
| --- | --- | --- | --- | --- | --- | --- | --- | --- | --- | --- | --- | --- | --- | --- | --- | --- | --- | --- | --- | --- |
| O=c1[nH]c2ccccc2nc1-c1c[nH]c2ccccc12 | > 100 µM | > 100 µM | 8.63 µM | > 100 µM | > 100 µM | > 100 µM | > 100 µM | > 100 µM | > 100 µM | > 100 µM | > 100 µM | > 100 µM | > 100 µM | > 100 µM | > 100 µM | > 100 µM | 68.2 µM | > 100 µM | > 100 | > 100 |
| C[C@]12CC[C@H]3[C@@H](CCC4=CC(=O)CC[C@@H]43)[C@@H]1CC[C@@H]2OC(=O)CCc1ccccc1 | 24.5 µM | > 80.2 µM | 21.8 µM | 66.6 µM | 42.8 µM | > 81.5 µM | 23.9 µM | 50.8 µM | 19.3 µM | 43.9 µM | 2.41 µM | 35.5 µM | 15.6 µM | 32.5 µM | 18.9 µM | 45.1 µM | 15.5 µM | 30.6 µM | 18.8 | > 69 |
| CC1=C(CCC(C)N(C)Cc2ccc(OCCCN3CCCC3)cc2)C(C)(C)CCC1 (stereo not given) | 1.43 µM | 2.85 µM | 1.72 µM | 4.97 µM | 3.2 µM | 11.1 µM | 2.59 µM | 11.7 µM | 2.82 µM | 12.1 µM | 3.87 µM | 20.4 µM | 10.8 µM | 23.4 µM | 3.29 µM | 11.3 µM | 1.89 µM | 4.09 µM | 1.67 | 4.06 |
| O=C(/C(=C/c1ccccc1)CN1CCCCC1)c1ccccc1 | 0.57 µM | 5.21 µM | 0.801 µM | 3.2 µM | 1.98 µM | 3.98 µM | 1.79 µM | 3.64 µM | 0.468 µM | 1.44 µM | 1.22 µM | 10.2 µM | 1.52 µM | 5.78 µM | 0.518 µM | 1.44 µM | 2.42 µM | 7.08 µM | 0.566 | > 33.6 |
| CCCn1c(C)nc2c1C(=O)c1ccccc1C2=O | 17.2 µM | 32.9 µM | 35.1 µM | > 100 µM | > 100 µM | > 100 µM | 56.8 µM | > 100 µM | 23.7 µM | 65.9 µM | 9.61 µM | 45.8 µM | 23.5 µM | > 100 µM | 37.7 µM | > 100 µM | 13 µM | 41.6 µM | 9.87 | > 100 |
| CN(C)c1ccc2c(c1)Sc1cc(N(C)C)ccc1N2C(=O)c1ccccc1 | 65 µM | > 100 µM | 35.2 µM | > 100 µM | > 100 µM | > 100 µM | 32.8 µM | > 100 µM | 25 µM | > 100 µM | 4.5 µM | > 100 µM | > 100 µM | > 100 µM | 32.4 µM | > 100 µM | 10.1 µM | > 100 µM | 2.69 | > 100 |
| O=C(c1ccccc1)C(CN1CCOCC1)c1ccccc1 (stereo not given) | 1.35 µM | 3.36 µM | 3 µM | 9.87 µM | 2.65 µM | 5.3 µM | 2.72 µM | 6.93 µM | 0.609 µM | 2.08 µM | 1.95 µM | 5.57 µM | 1.16 µM | 2.44 µM | 1.3 µM | 2.71 µM | 2.67 µM | 10.4 µM | 0.355 | 3.38 |
| Cc1ccc(C(=O)Nc2ccc(CN3CCN(C)CC3)c(C(F)(F)F)c2)cc1C#Cc1cnc2cccnn12 | 0.26 µM and 0.753 µM | 1.23 µM and 3.62 µM | 0.54 µM and 1.68 µM | 2.07 µM and 4.37 µM | 0.41 µM and 0.808 µM | 1.64 µM and 4.69 µM | 0.428 µM and 0.903 µM | 1.69 µM and 4.1 µM | 0.235 µM and 0.464 µM | 1.05 µM and 3.43 µM | 0.422 µM and 0.44 µM | 1.58 µM and 3.88 µM | 0.423 µM and 0.712 µM | 1.57 µM and 3.72 µM | 0.191 µM and 0.322 µM | 1.09 µM and 3.24 µM | 0.327 µM and 1.26 µM | 1.75 µM and 4.27 µM |  |  |
| C=CC(=O)N(C)[C@H]1C[C@H]2OC(C)(C1OC)n1c3ccccc3c3c4c(c5c6ccccc6n2c5c31)C(=O)NC4 (stereo not given in full) | 0.364 µM | 3.9 µM | 0.0774 µM |  | 0.106 µM | > 50 µM | 0.0872 µM | 0.69 µM | 0.0681 µM | 0.672 µM | 0.129 µM | 1.59 µM | 0.124 µM | 18.7 µM | 0.139 µM | > 50 µM | 0.0815 µM | 0.827 µM | 0.233 | > 50 |
| CCN=C1C=CC(=C(c2ccc(N)cc2)c2ccc(N(CC)CC)c(C)c2)C=C1 | 0.286 µM | 0.884 µM | 0.222 µM | 1.34 µM | 0.317 µM | 2.07 µM | 0.344 µM | 1.84 µM | 0.239 µM | 1.11 µM | 0.304 µM | 0.841 µM | 0.43 µM | 2.28 µM | 0.422 µM | 2.66 µM | 0.223 µM | 0.745 µM | 0.259 | 1.72 |
| CN1CCN(Cc2ccc(NC(=O)c3cncc(C#Cc4cnc(N)c5ccncc45)c3)cc2C(F)(F)F)CC1 | 0.218 µM | 4 µM | 1.75 µM | 12.5 µM | 0.855 µM | > 50 µM | 1.73 µM | 7.48 µM | 0.442 µM | 3.04 µM | 0.387 µM | 2.89 µM | 0.527 µM | 6.67 µM | 0.581 µM | 4.02 µM | 2.16 µM | > 50 µM | 0.0146 | 5.21 |
| COC(=O)Cn1c2c(c3c(O)cccc31)C(=O)c1ccccc1-2 | > 100 µM | > 100 µM | > 100 µM | > 100 µM | > 100 µM | > 100 µM | > 100 µM | > 100 µM | > 100 µM | > 100 µM | > 100 µM | > 100 µM | > 100 µM | > 100 µM | > 100 µM | > 100 µM | > 100 µM | > 100 µM | > 100 | > 100 |
| CN(C)c1ccc(/C=C\c2cccc[n+]2C)cc1 | 4.16 µM | > 100 µM | 4.37 µM | 65.5 µM | 19.2 µM | > 100 µM | 16.3 µM | > 100 µM | 4.16 µM | > 100 µM | 3.09 µM | > 100 µM | 20.6 µM | > 100 µM | 43 µM | > 100 µM | 4.33 µM | > 100 µM | 2.22 | > 100 |
| C=CC(=O)N1CCN(c2ccc3cccc(NC(=O)c4cnc(C)cn4)c3n2)CC1 | 3.67 µM | 32.9 µM | 3.48 µM | > 100 µM | 16.5 µM | 81.7 µM | 1.77 µM | > 100 µM | 2.36 µM | 20.1 µM | 2.2 µM | 6.61 µM | 2.45 µM | > 100 µM | 0.656 µM | > 100 µM | 13.5 µM | > 100 µM | 3.6 | > 100 |
| C/C(=N\Nc1ccc2ccccc2n1)c1ccccn1 | 0.223 µM | 8.09 µM | < 0.0332 µM | 3.2 µM | 0.0832 µM | 14.5 µM | 0.1 µM | 1.69 µM | < 0.0472 µM | 3.03 µM |  |  | 0.107 µM | 5.25 µM | < 0.0389 µM | 1.32 µM |  | 0.636 µM |  | 1.68 |
| COc1cccc(NC(=O)c2sc3nc4c(cc3c2N)CN(Cc2ccccc2)CC4)c1 | 0.296 µM | 11 µM | 4.62 µM | 47.3 µM | 36.9 µM | > 100 µM | 3.61 µM | 20.8 µM | 1.74 µM | > 100 µM |  |  | 5.22 µM | 22.2 µM | 3.46 µM | 64.5 µM | 3.05 µM | 19.4 µM | 0.53 | > 100 |
| O=C(NN1C(=O)CSC12CCCCC2)c1[nH]c2ccc(F)cc2c1-c1ccccc1 | 21.8 µM | 52.9 µM | 35.6 µM | > 100 µM | 37.6 µM | > 100 µM | 26 µM | 49.8 µM | 16.7 µM | 31.5 µM |  |  | 22.6 µM | 45.2 µM | 20 µM | 42.9 µM | 22.2 µM | 40 µM | 21.3 | 52.7 |
| O=C1c2ccccc2-c2c1c1ccc([N+](=O)[O-])cc1c(=O)n2CCCBr | > 100 µM | > 100 µM | > 100 µM | > 100 µM | > 100 µM | > 100 µM | > 100 µM | > 100 µM | 3.43 µM | > 100 µM | > 100 µM | > 100 µM | > 100 µM | > 100 µM | > 100 µM | > 100 µM |  |  | > 100 | > 100 |
| CC(CN1CCN(CCOCCO)CC1)CN1c2ccccc2Sc2ccc(Cl)cc21 (stereo not given) | 2.06 µM | 4.96 µM | 6.22 µM | 22.6 µM | 2.6 µM | 7.27 µM | 4.79 µM | 18 µM | 2.03 µM | 4.35 µM | 1.76 µM | 4.01 µM | 5.05 µM | 17 µM | 3.46 µM | 12.6 µM |  |  | 1.96 | 4.18 |
